Calls of active or inactive are those of the source. The calls are words filed in the database; no cut-off is given here.
Columns and labels:
[1] = system: Mus musculus; assay: Acute hypoglycemic activity in type 2 diabetic ob/ob mouse assessed as reduction in fasting blood glucose level at 100 mg/kg, po administered as single dose and measured for 10 hrs; assay type: functional, organism-based
[2] = Inhibition of gluconeogenesis in C57BL/6J mouse primary hepatocytes assessed as inhibition of glucagon-stimulated glucose production at 2.5 uM preincubated for 1.5 hrs followed by lactate and pyruvate addition and later stimulated with glucagon for 4 hrs; assay type: functional; details: Hepatocyte, time 5.5 hrs
[3] = Cytotoxicity against C57BL/6J mouse primary hepatocytes assessed as cell viability at 200 uM incubated for 24 hrs by MTT assay relative to control; assay type: toxicity, cell-based, Hepatocyte; details: read-out: Activity
[4] = system: Mus musculus; assay: In vivo activation of SIK1 in ob/ob mouse assessed as decrease in CREB phosphorylation in liver at 100 mg/kg, po administered once daily for 21 days by western blot analysis; assay type: functional, organism-based; details: time 21.0 day
[5] = system: Mus musculus; assay: In vivo activation of SIK1 in ob/ob mouse assessed as increase in SIK1 phosphorylation at Thr182 residue in liver at 100 mg/kg, po administered once daily for 21 days by western blot analysis; assay type: functional, organism-based; details: time 21.0 day
[6] = system: Mus musculus; assay: Anti-hyperglycemic activity in ob/ob mouse assessed as reduction in fasting blood glucose level at 100 mg/kg, po administered once daily and measured after 21 days relative to control; assay type: functional; details: 504 h, time 21 day
[7] = system: Mus musculus; assay: Anti-hyperglycemic activity in ob/ob mouse assessed as reduction in non-fasting blood glucose level at 100 mg/kg, po administered once daily and measured after 21 days relative to control; assay type: functional; details: 504 h, time 21 day
[8] = system: Mus musculus; assay: Anti-hyperglycemic activity in ob/ob mouse assessed as reduction in fasting blood glucose level at 100 mg/kg, po administered once daily and measured after 4 days relative to control; assay type: functional; details: 96 h, time 4 day
[9] = Cytotoxicity against C57BL/6J mouse primary hepatocytes assessed as cell viability at 20 uM incubated for 24 hrs by MTT assay relative to control; assay type: toxicity, cell-based, Hepatocyte; details: read-out: Activity
[10] = Cytotoxicity against C57BL/6J mouse primary hepatocytes assessed as cell viability at 10 uM incubated for 24 hrs by MTT assay relative to control; assay type: toxicity, cell-based, Hepatocyte; details: read-out: Activity
[11] = Inhibition of gluconeogenesis in C57BL/6J mouse primary hepatocytes assessed as inhibition of glucagon-stimulated glucose production at 10 uM preincubated for 1.5 hrs followed by lactate and pyruvate addition and later stimulated with glucagon for 4 hrs; assay type: functional; details: Hepatocyte, time 5.5 hrs
[12] = Cytotoxicity against C57BL/6J mouse primary hepatocytes assessed as cell viability at 50 uM incubated for 24 hrs by MTT assay relative to control; assay type: toxicity, cell-based, Hepatocyte; details: read-out: Activity
[13] = system: Mus musculus; assay: Anti-hyperglycemic activity in ob/ob mouse assessed as reduction in non-fasting blood glucose level at 100 mg/kg, po administered once daily and measured after 8 days relative to control; assay type: functional; details: 192 h, time 8 day
[14] = Cytotoxicity against C57BL/6J mouse primary hepatocytes assessed as cell viability at 100 uM incubated for 24 hrs by MTT assay relative to control; assay type: toxicity, cell-based, Hepatocyte; details: read-out: Activity
[15] = Inhibition of gluconeogenesis in C57BL/6J mouse primary hepatocytes assessed as inhibition of glucagon-stimulated glucose production at 5 uM preincubated for 1.5 hrs followed by lactate and pyruvate addition and later stimulated with glucagon for 4 hrs; assay type: functional; details: Hepatocyte, time 5.5 hrs
[16] = biological target: Serine/threonine-protein kinase SIK1 (Mus musculus) (UniProt Q60670); assay: Activation of SIK1 in C57BL/6J mouse primary hepatocytes assessed as decrease in glucagon-stimulated intracellular cAMP accumulation by ELISA; assay type: cell-based; details: Primary hepatocyte, filed as activator, dose 2.5-10 µM, DDE = dose-dependent effect
Chain of Serine/threonine-protein kinase SIK1 (Mus musculus) (Q60670 whole entry): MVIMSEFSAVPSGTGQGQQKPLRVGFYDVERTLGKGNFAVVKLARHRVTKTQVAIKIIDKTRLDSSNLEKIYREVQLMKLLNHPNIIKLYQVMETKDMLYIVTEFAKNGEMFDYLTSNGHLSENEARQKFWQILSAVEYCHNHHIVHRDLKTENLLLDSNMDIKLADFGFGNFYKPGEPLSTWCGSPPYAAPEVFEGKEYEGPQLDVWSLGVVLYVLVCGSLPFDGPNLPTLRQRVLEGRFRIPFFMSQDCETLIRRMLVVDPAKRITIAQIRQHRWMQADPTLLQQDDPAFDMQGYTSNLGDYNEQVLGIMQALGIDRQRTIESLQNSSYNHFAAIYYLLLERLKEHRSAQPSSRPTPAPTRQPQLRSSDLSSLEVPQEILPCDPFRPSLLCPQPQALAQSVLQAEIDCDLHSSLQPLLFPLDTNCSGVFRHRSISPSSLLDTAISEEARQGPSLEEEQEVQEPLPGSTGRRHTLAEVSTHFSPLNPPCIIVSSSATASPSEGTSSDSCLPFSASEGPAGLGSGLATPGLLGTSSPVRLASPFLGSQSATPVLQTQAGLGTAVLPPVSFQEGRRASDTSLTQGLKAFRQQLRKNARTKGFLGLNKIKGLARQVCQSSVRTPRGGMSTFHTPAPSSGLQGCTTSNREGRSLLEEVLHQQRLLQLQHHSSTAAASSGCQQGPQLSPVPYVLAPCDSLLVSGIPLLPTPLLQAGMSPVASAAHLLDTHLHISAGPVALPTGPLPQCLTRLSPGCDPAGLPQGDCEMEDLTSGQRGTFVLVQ

[17] = system: Hepatocyte; assay: Inhibition of gluconeogenesis in C57BL/6J mouse primary hepatocytes assessed as inhibition of glucagon-stimulated glucose production preincubated for 1.5 hrs followed by lactate and pyruvate addition and later stimulated with glucagon for 4 hrs; assay type: functional, cell-based; details: dose 2.5-10 µM, time 5.5 hrs, DDE = dose-dependent effect
[18] = biological target: Serine/threonine-protein kinase SIK1 (Mus musculus) (UniProt Q60670); assay: Activation of SIK1 in C57BL/6J mouse primary hepatocytes assessed as decrease in CREB phosphorylation at 2.5 to 10 uM incubated for 2 hrs by western blot analysis; assay type: cell-based; details: Primary hepatocyte, filed as activator, dose 2.5-10 µM, DDE = dose-dependent effect
[19] = system: Mus musculus; assay: Anti-hyperlipidemic activity in ob/ob mouse assessed as reduction in serum triglyceride level at 100 mg/kg, po administered once daily for 21 days; assay type: functional, organism-based; details: time 21.0 day
[20] = biological target: Serine/threonine-protein kinase SIK1 (Mus musculus) (UniProt Q60670); assay: Activation of SIK1 in C57BL/6J mouse primary hepatocytes assessed as decrease in glucagon-stimulated CREB phosphorylation at 2.5 to 10 uM incubated for 2 hrs by western blot analysis; assay type: cell-based; details: Primary hepatocyte, filed as activator, dose 2.5-10 µM, DDE = dose-dependent effect
[21] = biological target: Serine/threonine-protein kinase SIK1 (Mus musculus) (UniProt Q60670); assay: Activation of SIK1 in C57BL/6J mouse primary hepatocytes assessed as increase in SIK1 phosphorylation at Thr182 residue measured after 2 hrs by western blot analysis; assay type: cell-based; details: Primary hepatocyte, filed as activator, dose 2.5-10 µM, DDE = dose-dependent effect
[22] = system: Hepatocyte; assay: Inhibition of gluconeogenesis in C57BL/6J mouse primary hepatocytes assessed as inhibition of glucose production preincubated for 1.5 hrs followed by lactate and pyruvate addition; assay type: functional, cell-based; details: dose 2.5-10 µM, DDE = dose-dependent effect
[23] = system: Mus musculus; assay: Anti-hyperlipidemic activity in ob/ob mouse assessed as reduction in total cholesterol level in serum at 100 mg/kg, po administered once daily for 21 days; assay type: functional, organism-based; details: time 21.0 day
[24] = Inhibition of gluconeogenesis in C57BL/6J mouse primary hepatocytes assessed as inhibition of glucagon-stimulated glucose production at 0.5 mM preincubated for 1.5 hrs followed by lactate and pyruvate addition and later stimulated with glucagon for 4 hrs; assay type: functional; details: Hepatocyte, 5.5 h

Row | SMILES | inhibition at 2.5 µM [2] [%] | viability at 24 h, 200 µM [3] [%] | viability at 24 h, 20 µM [9] [%] | viability at 24 h, 10 µM [10] [%] | inhibition at 10 µM [11] [%] | viability at 24 h, 50 µM [12] [%] | viability at 24 h, 100 µM [14] [%] | inhibition at 5 µM [15] [%] | further results
1 | COC(=O)[C@@]12CCCC3([C@H](O)OC1)[C@H]2CC[C@H]1[C@@H](C)c2ccoc2C[C@@H]13 | 24.9 | 7.2 | 84.6 | 99 | 70.5 | 29.4 | 7.5 | 49.7 | Activity [1]: Active; Activity [4]: Active; Activity [5]: Active; inhibition in vivo at 100 mg/kg [6]: 33.3%; inhibition in vivo at 100 mg/kg [7]: 23.8%; inhibition in vivo at 100 mg/kg [8]: 24%; inhibition in vivo at 100 mg/kg [13]: 28.2%
2 | COC(=O)[C@@]12CCCC3([C@H](OCCO)OC1)[C@H]2CC[C@H]1[C@@H](C)c2ccoc2C[C@@H]13 | 53.4 | 9.2 | 86.1 | 98.4 | 91.4 | 90.1 | 11.1 | 79.6 | Activity [16]: Dde; Activity [1]: Active; Activity [4]: Active; Activity [5]: Active; inhibition in vivo at 100 mg/kg [6]: 41.2%; inhibition in vivo at 100 mg/kg [7]: 37.6%; inhibition in vivo at 100 mg/kg [8]: 32.3%; inhibition [17]: Dde; Activity [18]: Dde; Activity [19]: Active; Activity [20]: Dde; Activity [21]: Dde; inhibition in vivo at 100 mg/kg [13]: 41.1%; inhibition [22]: Dde; Activity [23]: Active
3 | CN(C)C(=N)NC(=N)N [METFORMIN] | – | – | – | – | – | – | – | – | inhibition at 500 µM [24]: 51.5%
4 | CCCNC(=O)[C@@]12CCCC3([C@H](OCCO)OC1)[C@H]2CC[C@H]1[C@@H](C)c2ccoc2C[C@@H]13 | 21.2 | 27.5 | 77.5 | 84.3 | 62.1 | 70.5 | 57.4 | 45 | –
5 | COC(=O)[C@@]12CCCC3([C@H](OCCOCCO)OC1)[C@H]2CC[C@H]1[C@@H](C)c2ccoc2C[C@@H]13 | 67.3 | 7.9 | 17.4 | 28.3 | 95.6 | 12 | 10.6 | 93.3 | Activity [21]: Dde
6 | COC(=O)[C@]12CCCC3([C@H]1CC[C@H]1[C@@H](C)c4ccoc4C[C@@H]13)[C@H](SCCO)OC2 | 13.1 | 9.2 | 97.9 | 105 | 67.3 | 74.1 | 10.2 | 44.4 | –
7 | COC(=O)[C@@]12CCCC3([C@H](OCCOCCOCCOCCO)OC1)[C@H]2CC[C@H]1[C@@H](C)c2ccoc2C[C@@H]13 | 63.1 | 7.9 | 25.4 | 48.9 | 111 | 12.9 | 11 | 87.8 | Activity [21]: Dde
8 | CNC(=O)[C@@]12CCCC3([C@H](OCCO)OC1)[C@H]2CC[C@H]1[C@@H](C)c2ccoc2C[C@@H]13 | 9.6 | 76.3 | 84.7 | 82.9 | 56.6 | 85.8 | 82.6 | 34.2 | –
9 | COC(=O)[C@@]12CCCC3([C@H](OCCCO)OC1)[C@H]2CC[C@H]1[C@@H](C)c2ccoc2C[C@@H]13 | 32.7 | 9.9 | 20.6 | 49.7 | 97.5 | 14.1 | 12 | 81.8 | –
10 | CCNC(=O)[C@@]12CCCC3([C@H](OCCO)OC1)[C@H]2CC[C@H]1[C@@H](C)c2ccoc2C[C@@H]13 | 21.8 | 47.5 | 84.1 | 84.2 | 66.1 | 90 | 73.4 | 52.8 | –
11 | COC(=O)[C@@]12CCCC3([C@H](OCCCCCO)OC1)[C@H]2CC[C@H]1[C@@H](C)c2ccoc2C[C@@H]13 | 32.2 | 18.7 | 33.3 | 70.1 | 89.2 | 17.2 | 19.3 | 82.7 | –

From ChEMBL document CHEMBL5154738, “Design, synthesis and structural-activity relationship studies of phanginin A derivatives for regulating SIK1-cAMP/CREB signaling to suppress hepatic gluconeogenesis” (Eur J Med Chem, 2022)
